Test results taken from patent US20050282743A1, “Molecular interactions in cells” (Arbor Vita Corporation, priority 2001, published 2005).
Ends that are not written are not given here. Peptide text beside a SMILES is read from it. * marks the point of attachment. Biotin = O=C1N[C@H]2[C@H](CS[C@H]2CCCCC(=O)*)N1

How the values were obtained:
[1] = target: T1, PDZ protein (GST-PDZ fusion) (Homo sapiens, UniProt Q02410); experiment: G' assay (10 uM PL peptide), results of TABLE 7 and TABLE 12; type: binding
T1 construct: made in house; host or cells: E. coli (DH5alpha, BL21 or JM109)
T1 sequence (Q02410 1-837): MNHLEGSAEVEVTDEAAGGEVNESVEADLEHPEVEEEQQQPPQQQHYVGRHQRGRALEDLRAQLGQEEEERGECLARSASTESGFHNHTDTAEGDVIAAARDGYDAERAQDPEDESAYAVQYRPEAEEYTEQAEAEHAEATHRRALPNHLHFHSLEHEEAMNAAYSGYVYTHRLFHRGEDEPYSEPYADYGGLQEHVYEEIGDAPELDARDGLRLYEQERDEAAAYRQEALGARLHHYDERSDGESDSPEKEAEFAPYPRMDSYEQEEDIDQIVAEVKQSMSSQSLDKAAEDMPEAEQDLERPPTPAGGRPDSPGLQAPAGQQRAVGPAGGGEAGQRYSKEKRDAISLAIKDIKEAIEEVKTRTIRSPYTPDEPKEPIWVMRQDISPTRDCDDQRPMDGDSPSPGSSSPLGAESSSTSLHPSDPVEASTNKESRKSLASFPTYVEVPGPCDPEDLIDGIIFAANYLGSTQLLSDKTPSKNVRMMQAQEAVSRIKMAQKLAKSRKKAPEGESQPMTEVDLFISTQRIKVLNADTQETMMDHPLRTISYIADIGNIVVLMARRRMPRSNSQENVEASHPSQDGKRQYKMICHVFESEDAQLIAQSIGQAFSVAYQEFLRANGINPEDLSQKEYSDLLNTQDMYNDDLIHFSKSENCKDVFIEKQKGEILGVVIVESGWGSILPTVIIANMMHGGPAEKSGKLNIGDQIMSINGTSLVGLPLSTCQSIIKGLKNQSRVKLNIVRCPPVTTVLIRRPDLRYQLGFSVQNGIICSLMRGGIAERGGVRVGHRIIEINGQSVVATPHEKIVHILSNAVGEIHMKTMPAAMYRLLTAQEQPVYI
Method in brief: (§1)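 Same steps as the G-zero format, apart from a peptide concentration of 10 uM in place of 20 uM in step 2. Amino-terminally biotinylated PL peptides bind GST-PDZ fusions, and retained peptide is quantified by 450 nm absorbance.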

[2] = test system: PDZ protein (GST-PDZ fusion); experiment: as above; type: binding
Method in brief: as §1

| Compound | Classification ([1]; PDZ Mint 1, PDZ Domain 1, 2) | Classification ([1]; PDZ Mint 1, PDZ Domain 2) | Classification ([2]; PDZ BAI-1, PDZ Domain 2) | Classification ([2]; PDZ BAI-1, PDZ Domain 6) | Classification ([2]; PDZ SHANK, PDZ Domain 1) | also measured |
| --- | --- | --- | --- | --- | --- | --- |
| KTMPAATYRLLTGQEQPVYL (Biotin-KTMPAATYRLLTGQEQPVYL) [MINT-3] | 2 (A450 nm 1-2) | 2 (A450 nm 1-2) | – | – | – | Classification ([2]; PDZ LIM Protein, PDZ Domain 1): 1 (A450 nm 0-1) |
| RNIEEVYVGGKQVVPFSSSV (Biotin-RNIEEVYVGGKQVVPFSSSV) [Nedasin (s-form)] | 1 (A450 nm 0-1) | – | 1 (A450 nm 0-1) | 1 (A450 nm 0-1) | – | – |
| CC[C@H](C)[C@H](NC(=O)[C@H](CC(=O)O)NC(=O)[C@H](CCC(=O)O)NC(=O)[C@H](CCCNC(=N)N)NC(=O)[C@@H](NC(=O)CCCC[C@@H]1SC[C@@H]2NC(=O)N[C@@H]21)[C@@H](C)O)C(=O)N[C@@H](Cc1ccc(O)cc1)C(=O)N[C@H](C(=O)N[C@@H](CC(N)=O)C(=O)N[C@@H](Cc1ccc(O)cc1)C(=O)N1CCC[C@H]1C(=O)N[C@H](C(=O)N[C@@H](Cc1ccccc1)C(=O)N[C@@H](CO)C(=O)N[C@@H](CCCNC(=N)N)C(=O)N[C@@H](CCCNC(=N)N)C(=O)N1CCC[C@H]1C(=O)N[C@@H](CCCCN)C(=O)N[C@H](C(=O)N[C@@H](CCCNC(=N)N)C(=O)N[C@H](C(=O)O)C(C)C)[C@@H](C)O)[C@@H](C)O)C(C)C [DNAM-1] (Biotin-TREDIYVNYPTFSRRPKTRV-OH; C-terminus assumed) | – | – | 5 (A450 nm of 4 more than 2× repeated) | – | – | – |
| CKR5_HUMAN (ERASSVYTRSTGEQEISVGL) | 1 (A450 nm 0-1) | – | – | – | – | – |
| CC(C)C[C@H](NC(=O)[C@H](C)NC(=O)[C@@H](NC(=O)[C@H](CCC(=O)O)NC(=O)[C@H](CCCNC(=N)N)NC(=O)[C@H](CCCNC(=N)N)NC(=O)CNC(=O)[C@H](CCC(N)=O)NC(=O)[C@H](CC(C)C)NC(=O)[C@H](CCCNC(=N)N)NC(=O)CNC(=O)CNC(=O)[C@H](CCCNC(=N)N)NC(=O)[C@H](C)NC(=O)[C@H](CO)NC(=O)[C@H](CCCNC(=N)N)NC(=O)CNC(=O)CNC(=O)[C@H](C)NC(=O)[C@H](C)NC(=O)CCCC[C@@H]1SC[C@@H]2NC(=O)N[C@@H]21)[C@@H](C)O)C(=O)O [HPV E6 33 (modified)] (Biotin-AAGGRSARGGRLQGRRETAL-OH; C-terminus assumed) | – | 1 (A450 nm 0-1) | 5 (A450 nm of 4 more than 2× repeated) | 1 (A450 nm 0-1) | 4 (A450 nm 3-4) | Classification ([2]; PDZ BAI-1, PDZ Domain 5): 1 (A450 nm 0-1); Classification ([2]; PDZ FLJ 00011, PDZ Domain 1): 1 (A450 nm 0-1) |
| QATSRNGHSARQHVVADTEL (Biotin-QATSRNGHSARQHVVADTEL) [CD34] | – | – | – | 1 (A450 nm 0-1) | 1 (A450 nm 0-1) | – |
| ALVLIAFCIIRRRPSAYQAL (Biotin-ALVLIAFCIIRRRPSAYQAL) [CD68] | 1 (A450 nm 0-1) | 2 (A450 nm 1-2) | 3 (A450 nm 2-3) | – | 1 (A450 nm 0-1) | – |
| ARHRVTSYTSSSVNVSSNL (Biotin-ARHRVTSYTSSSVNVSSNL) [IL-8RB] | – | – | 1 (A450 nm 0-1) | 1 (A450 nm 0-1) | – | Classification ([2]; PDZ Novel PDZ, PDZ Domain 2): 1 (A450 nm 0-1) |
| CC[C@H](C)[C@H](NC(=O)[C@H](CO)NC(=O)[C@H](CCC(=O)O)NC(=O)[C@H](Cc1ccc(O)cc1)NC(=O)[C@H](CC(=O)O)NC(=O)[C@H](CC(N)=O)NC(=O)[C@H](CCC(=O)O)NC(=O)[C@H](CCCCN)NC(=O)CCCC[C@@H]1SC[C@@H]2NC(=O)N[C@@H]21)C(=O)N[C@@H](CO)C(=O)N[C@@H](CC(=O)O)C(=O)N[C@@H](CC(C)C)C(=O)N[C@@H](CCC(N)=O)C(=O)N[C@@H](CCC(N)=O)C(=O)NCC(=O)N[C@@H](CCCNC(=N)N)C(=O)N[C@@H](CC(=O)O)C(=O)N[C@H](C(=O)N[C@H](C(=O)N[C@@H](CCCNC(=N)N)C(=O)N[C@@H](CC(C)C)C(=O)O)[C@@H](C)O)[C@@H](C)CC [PAG] (Biotin-KENDYESISDLQQGRDITRL-OH; C-terminus assumed) | – | – | – | – | 4 (A450 nm 3-4) | Classification ([2]; PDZ FLJ 00011, PDZ Domain 1): 3 (A450 nm 2-3) |
| CC[C@H](C)[C@H](NC(=O)[C@H](CO)NC(=O)[C@@H](NC(=O)[C@H](Cc1ccccc1)NC(=O)[C@H](CO)NC(=O)CCCC[C@@H]1SC[C@@H]2NC(=O)N[C@@H]21)[C@@H](C)O)C(=O)N[C@@H](CC(C)C)C(=O)N[C@H](C(=O)N[C@@H](CS)C(=O)N[C@@H](Cc1c[nH]cn1)C(=O)N[C@@H](CCC(N)=O)C(=O)N[C@@H](CCCNC(=N)N)C(=O)N[C@@H](CCCNC(=N)N)C(=O)N[C@H](C(=O)N[C@@H](CCC(N)=O)C(=O)N[C@@H](CCCNC(=N)N)C(=O)N[C@@H](CCCCN)C(=O)N[C@@H](CCC(=O)O)C(=O)N[C@H](C(=O)N[C@H](C(=O)N[C@@H](C)C(=O)O)C(C)C)[C@@H](C)O)[C@@H](C)O)[C@@H](C)O [GluR5-2 (rat)] | – | – | 5 (A450 nm of 4 more than 2× repeated) | – | – | – |
| PPATPSPRLALPAHHNATRL (Biotin-PPATPSPRLALPAHHNATRL) [Na+/Pi cotransporter 2] | – | 1 (A450 nm 0-1) | – | – | 5 (A450 nm of 4 more than 2× repeated) | – |
| CC(C)C[C@H](NC(=O)[C@H](CCCNC(=N)N)NC(=O)CNC(=O)CNC(=O)[C@H](CCCNC(=N)N)NC(=O)[C@H](C)NC(=O)[C@@H]1CCCN1C(=O)[C@H](CCCNC(=N)N)NC(=O)CNC(=O)CNC(=O)[C@@H](NC(=O)[C@H](C)NC(=O)CCCC[C@@H]1SC[C@@H]2NC(=O)N[C@@H]21)C(C)C)C(=O)N[C@@H](CCC(N)=O)C(=O)NCC(=O)N[C@@H](CCCNC(=N)N)C(=O)N[C@@H](CCCNC(=N)N)C(=O)N[C@@H](CCC(N)=O)C(=O)N[C@H](C(=O)N[C@@H](CCC(N)=O)C(=O)N[C@H](C(=O)O)C(C)C)[C@@H](C)O [HPV E6 58 (modified)] (Biotin-AVGGRPARGGRLQGRRQTQV-OH; C-terminus assumed) | – | 1 (A450 nm 0-1) | 5 (A450 nm of 4 more than 2× repeated) | – | – | Classification ([2]; PDZ BAI-1, PDZ Domain 3): 2 (A450 nm 1-2); Classification ([2]; PDZ BAI-1, PDZ Domain 4): 2 (A450 nm 1-2); Classification ([2]; PDZ BAI-1, PDZ Domain 5): 2 (A450 nm 1-2) |
| LASKSAEEGKQIPDSLSTDL (Biotin-LASKSAEEGKQIPDSLSTDL) [Dock2] | – | – | – | 1 (A450 nm 0-1) | 1 (A450 nm 0-1) | Classification ([2]; PDZ HEMBA 1003117, PDZ Domain 1): 1 (A450 nm 0-1) |
| CC[C@H](C)[C@H](NC(=O)[C@H](C)NC(=O)[C@H](CC(C)C)NC(=O)[C@H](Cc1c[nH]c2ccccc12)NC(=O)[C@H](Cc1c[nH]cn1)NC(=O)[C@H](CCC(N)=O)NC(=O)[C@H](CC(C)C)NC(=O)[C@H](CCC(N)=O)NC(=O)[C@H](Cc1ccccc1)NC(=O)[C@H](CCC(N)=O)NC(=O)[C@H](CCCNC(=N)N)NC(=O)[C@@H](NC(=O)[C@H](CC(=O)O)NC(=O)[C@H](CCCNC(=N)N)NC(=O)[C@H](CCC(N)=O)NC(=O)[C@H](C)NC(=O)[C@@H](NC(=O)[C@H](CC(C)C)NC(=O)[C@H](Cc1c[nH]cn1)NC(=O)[C@H](Cc1c[nH]cn1)NC(=O)CCCC[C@@H]1SC[C@@H]2NC(=O)N[C@@H]21)C(C)C)[C@@H](C)CC)C(=O)O [noradrenaline transporter] (Biotin-HHLVAQRDIRQFQLQHWLAI-OH; C-terminus assumed) | 3 (A450 nm 2-3) | – | – | – | – | – |
| APC—adenomatous polyposis coli protein (ESSGTQSPKRHSGSYLVTSV) | – | – | 1 (A450 nm 0-1) | – | – | Classification ([2]; PDZ BAI-1, PDZ Domain 5): 1 (A450 nm 0-1); Classification ([2]; PDZ FLJ 00011, PDZ Domain 1): 1 (A450 nm 0-1) |
